{"source": "patent US20160193251A1", "about": "“METHOD FOR TREATING ALS VIA THE INCREASED PRODUCTION OF FACTOR H” (BioViva USA Inc., priority 2013, published 2016)", "molecules": {"B1": {"name": "GDNF: Glial derived neurotrophic factor; in b58 given by ex vivo gene delivery within muscles (protein, UniProt P39905 78-211, looked up)", "Glial cell line-derived …": "SPDKQMAVLPRRERNRQAAAANPENSRGKGRRGQRGKNRGCVLTAIHLNVTDLGLGYETKEELIFRYCSGSCDAAETTYDKILKNLSRNRRLVSDKVGQACCRPIAFDDDLSFLDDNLVYHILRKHSAKRCGCI"}, "B2": {"name": "CNTF: a neurotrophic factor that is protective of neurons (protein, UniProt P26441 1-200, looked up)", "Ciliary neurotrophic factor": "MAFTEHSPLTPHRRDLCSRSIWLARKIRSDLTALTESYVKHQGLNKNINLDSADGMPVASTDQWSELTEAERLQENLQAYRTFHVLLARLLEDQQVHFTPTEGDFHQAIHTLLLQVAAFAYQIEELMILLEYKIPRNEADGMPINVGDGGLFEKKLWGLKVLQELSQWTVRSIHDLRFISSHQTGIPARGSHYIANNKKM"}}, "key": {"stem cells from fat": {"tested_on": "stem cells from fat", "assay": "Reprogramming of harvested adipose stem cells by drug treatment", "assay_type": "cell-based", "conditions": "harvested stem cells treated with the drug", "excerpt": "Embodiments of the present invention include performing adult adipose derived stem cell therapy to treat patients with ALS. Amyelotrophic Lateral Sclerosis (ALS) is a fatal disease with no treatment options. Since ALS is a neurological disorder, it was believed that patients would need neural stem cells, not the mesenchymal type stem cells that we have obtained from harvested adipose tissue. But, because neural stem cells are difficult to attain for various physiological and regulatory reasons, a new technical approach that targets the conversion or reprogramming of mesenchymal type stem cells that are obtained from adipose tissue recovered from the same patient to be treated has been generated.\nAn examplary stem cell therapy involves the use of adipose derived stem cells, which are then incubated with Selegeline, which results in preinduction into motor neurons. Initially, adipose tissue or fat is harvested via a minimally invasive liposuction. Then the fat is processed to separate the vascular stromal fraction of stem cells. […] Once processed, the majority of stem cells are administered into the spine (spinal fluid) via a lumbar puncture. A small dilute fraction of cells are injected into a select muscle group. […] The techniques allowing for culturing of stem cells and the reintroduction will help increase stem cell numbers. […]"}, "ALS mouse model": {"tested_on": "ALS mouse model", "conditions": "cited from earlier work"}, "SOD1 rats": {"tested_on": "SOD1 rats", "conditions": "ex vivo gene delivery within muscles, midstages of the disease; cited from earlier work"}, "[1]": {"conditions": "previous studies; cited from earlier work"}}}
{"molecule": "C#CCN(C)[C@H](C)Cc1ccccc1", "note": "[Selegeline]", "values": [{"measurement": "reprogramming of stem cells", "setting": "stem cells from fat", "value": "able to reprogram the stem cells from fat into neural like cells"}]}
{"molecule": "IGF-1: Insulin like growth factor 1", "values": [{"measurement": "progression", "setting": "ALS mouse model", "value": "delayed progression"}, {"measurement": "survival", "setting": "ALS mouse model", "value": "increased survival"}]}
{"molecule": "B1", "values": [{"measurement": "number of neuromuscular connections and MN cell bodies", "setting": "SOD1 rats", "value": "significantly increased the number of neuromuscular connections"}, {"measurement": "number of neuromuscular connections and motor neuron cell bodies", "setting": "ALS mouse model", "value": "increased the number of neuromuscular connections and motor neuron cell bodies"}]}
{"molecule": "B2", "values": [{"measurement": "half life", "setting": "[1]", "value": 2.9, "unit": "min"}]}
